Measurements: patent US20210269434A1, “TRICYCLIC COMPOUNDS AS INHIBITORS OF KRAS” (Incyte Corporation, priority 2020, published 2021)
pIC50: −log10 of the molar value.

How the values were obtained:
[1] = system: MIA PaCa-2 (KRAS G12C) cells; assay: Cellular pERK HTRF assay (KRAS_G12C pERK); assay type: cell-based, human; details: Homo sapiens, MIA PaCa-2, 4 hours incubation, read-out: G12C_pERK
Description: Example C: Cellular pERK HTRF Assay
MIA PaCa-2 (KRAS G12C; ATCC® CRL-1420), A427 (KRAS G12D; ATCC® HTB53), HPAF-II (KRAS G12D; ATCC® CRL-1997) and NCI-H838 (KRAS WT; ATCC® CRL-5844) cells are purchased from ATCC and maintained in RPMI 1640 media supplemented with 10% FBS (Gibco/Life Technologies). The cells are plated at 5000 cells per well (8 uL) into Greiner 384-well low volume, flat-bottom, tissue culture treated white plates and incubated overnight at 37° C., 5% CO2. The next morning, test compound stock solutions are diluted in media at 3× the final concentration, and 4 uL are added to the cells. The plate is mixed by gentle rotation for 30 seconds (250 rpm) at room temperature. The cells are incubated with the KRAS G12C and G12D compounds for 4 hours or 2 hours respectively at 37° C., 5% CO2.
4 uL of 4× lysis buffer with blocking reagent (1:25) (Cisbio) are added to each well and plates are rotated gently (300 rpm) for 30 minutes at room temperature. 4 uL per well of Cisbio anti Phospho-ERK 1/2 d2 is mixed with anti Phospho-ERK 1/2 Cryptate (1:1) are added to each well, mixed by rotation and incubated overnight in the dark at room temperature. Plates are read on the Pherastar plate reader at 665 nm and 620 nm wavelengths. IC50 determination is performed by fitting the curve of inhibitor percent inhibition versus the log of the inhibitor concentration using the GraphPad Prism 7 software.

KRAS G12C = KRAS G12C (Homo sapiens, UniProt P01116, G12C); assay: GDP-GTP exchange assay (KRAS_G12C exchange); assay type: biochemical; details: bodipy-GDP loaded KRAS G12C 2.5 nM, SOS1 150 nM, GppNHp; 2 hours pre-incubation, 2 hours reaction; read-out: G12C_exchange
Description: Example A. GDP-GTP Exchange Assay
The inhibitor potency of the exemplified compounds was determined in a fluorescence based guanine nucleotide exchange assay, which measures the exchange of bodipy-GDP (fluorescently labeled GDP) for GppNHp (Non-hydrolyzable GTP analog) to generate the active state of KRAS in the presence of SOS1 (guanine nucleotide exchange factor). Inhibitors were serially diluted in DMSO and a volume of 0.1 μL was transferred to the wells of a black low volume 384-well plate. 5 μL/well volume of bodipy-loaded KRAS G12C diluted to 5 nM in assay buffer (25 mM Hepes pH 7.5, 50 mM NaCl, 10 mM MgCl2 and 0.01% Brij-35) was added to the plate and pre-incubated with inhibitor for 2 hours at ambient temperature. Appropriate controls (enzyme with no inhibitor or with a G12C inhibitor (AMG-510)) were included on the plate. The exchange was initiated by the addition of a 5 μL/well volume containing 1 mM GppNHp and 300 nM SOS1 in assay buffer. The 10 μL/well reaction concentration of the bodipy-loaded KRAS G12C, GppNHp, and SOS1 were 2.5 nM, 500 uM, and 150 nM, respectively. The reaction plates were incubated at ambient temperature for 2 hours, a time estimated for complete GDP-GTP exchange in the absence of inhibitor. For the KRAS G12D and G12V mutants, similar guanine nucleotide exchange assays were used with 2.5 nM as final concentration for the bodipy loaded KRAS proteins and with 4 hours and 3 hours incubation after adding GppNHp-SOS1 mixture for G12D and G12V respectively. A cyclic peptide described to selectively bind G12D mutant (Sakamoto et al., BBRC 484.3 (2017), 605-611) or internal compounds with confirmed binding were used as positive controls in the assay plates. Fluorescence intensities were measured on a PheraStar plate reader instrument (BMG Labtech) with excitation at 485 nm and emission at 520 nm.
Either GraphPad prism or XLfit was used to analyze the data. The IC50 values were derived by fitting the data to a four parameter logistic equation producing a sigmoidal dose-response curve with a variable Hill coefficient. Prism equation: Y=Bottom+(Top−Bottom)/(1+10^((Log lC50−X)*Hill slope)); XLfit equation: Y=(A+((B−A)/(1+((X/C)^D)))) where X is the logarithm of inhibitor concentration and Y is the response.

Sequence of KRAS G12C (P01116 1-188 isoform P01116-2 G12C): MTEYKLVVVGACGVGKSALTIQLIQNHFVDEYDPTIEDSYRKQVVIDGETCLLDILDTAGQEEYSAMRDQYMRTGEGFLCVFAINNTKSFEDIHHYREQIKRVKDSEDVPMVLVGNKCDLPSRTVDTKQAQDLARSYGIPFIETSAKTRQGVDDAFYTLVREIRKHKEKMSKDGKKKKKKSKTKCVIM

Row | SMILES | pIC50 [1] | pIC50 (KRAS G12C)
1 | C=CC(=O)N1CCCC(n2cnc3c(OC[C@@H]4CCCN4C)nc4c(F)c(-c5cc(O)cc6ccccc56)c(Cl)cc4c32)C1 (mixture of isomers) [Example 5, 1-(3-(8-chloro-6-fluoro-7-(3-hydroxynaphthalen-1-yl)-4-(((S)-1-methylpyrrolidin-2-yl)methoxy)-1H-imidazo[4,5-c]quinolin-1-yl)piperidin-1-yl)prop-2-en-1-one] | 5.30 to 6.00 | ≥ 7.00
2 | C=CC(=O)N1CCC(n2cnc3c(OC[C@@H]4CCCN4C)nc4c(F)c(-c5cc(O)cc6ccccc56)c(Cl)cc4c32)C1 (mixture of isomers) [Example 7, 1-(3-(8-chloro-6-fluoro-7-(3-hydroxynaphthalen-1-yl)-4-(((S)-1-methyl-pyrrolidin-2-yl)methoxy)-1H-imidazo[4,5-c]quinolin-1-yl)pyrrolidin-1-yl)prop-2-en-1-one] | ≥ 7.00 | ≥ 7.00
3 | C=CC(=O)N1CCC(n2cnc3c(OC[C@@H]4CCCN4C)nc4c(F)c(-c5cccc6ccccc56)c(Cl)cc4c32)CC1CC#N (mixture of isomers) [Example 38, 2-(1-acryloyl-4-(8-chloro-6-fluoro-4-(((S)-1-methylpyrrolidin-2-yl)methoxy)-7-(naphthalen-1-yl)-1H-imidazo[4,5-c]quinolin-1-yl)piperidin-2-yl)acetonitrile] | ≥ 7.00 | ≥ 7.00
4 | C=CC(=O)N1CCC(n2cnc3c(OC[C@@H]4CCCN4C)nc4c(F)c(-c5cccc(Cl)c5C)c(Cl)cc4c32)CC1CC#N (mixture of isomers) [Example 41, 2-(1-acryloyl-4-(8-chloro-7-(3-chloro-2-methylphenyl)-6-fluoro-4-(((S)-1-methylpyrrolidin-2-yl)methoxy)-1H-imidazo[4,5-c]quinolin-1-yl)piperidin-2-yl)acetonitrile] | ≥ 7.00 | ≥ 7.00
5 | C=CC(=O)N1CCC(n2cnc3c(OC[C@@H]4CCCN4C)nc4c(F)c(-c5cccc(F)c5C)c(Cl)cc4c32)CC1CC#N (mixture of isomers) [Example 42, 2-(1-acryloyl-4-(8-chloro-6-fluoro-7-(3-fluoro-2-methylphenyl)-4-(((S)-1-methylpyrrolidin-2-yl)methoxy)-1H-imidazo[4,5-c]quinolin-1-yl)piperidin-2-yl)acetonitrile] | ≥ 7.00 | ≥ 7.00
6 | C=CC(=O)N1CCC(n2cnc3c(OC[C@@H]4CCCN4C)nc4c(F)c(-c5cccc(C)c5C)c(Cl)cc4c32)CC1CC#N (mixture of isomers) [Example 43, 2-(1-acryloyl-4-(8-chloro-7-(2,3-dimethylphenyl)-6-fluoro-4-(((S)-1-methyl-pyrrolidin-2-yl)methoxy)-1H-imidazo[4,5-c]quinolin-1-yl)piperidin-2-yl)acetonitrile] | ≥ 7.00 | ≥ 7.00
7 | C=CC(=O)N1CCC(n2cnc3c(OC[C@@H]4CCCN4C)nc4c(F)c(-c5cccc6c5CCC6)c(Cl)cc4c32)CC1CC#N (mixture of isomers) [Example 44, 2-(1-acryloyl-4-(8-chloro-7-(2,3-dihydro-1H-inden-4-yl)-6-fluoro-4-(((S)-1-methylpyrrolidin-2-yl)methoxy)-1H-imidazo[4,5-c]quinolin-1-yl)piperidin-2-yl)acetonitrile] | ≥ 7.00 | ≥ 7.00
8 | C=CC(=O)N1C[C@H](C)[C@@H](n2cnc3c(N4CC(N(C)C)C4)nc4c(F)c(-c5cc(O)cc6ccccc56)c(Cl)cc4c32)C1 (racemic) [Example 31a, 1-((trans)-3-(8-chloro-4-(3-(dimethylamino)azetidin-1-yl)-6-fluoro-7-(3-hydroxynaphthalen-1-yl)-1H-imidazo[4,5-c]quinolin-1-yl)-4-methylpyrrolidin-1-yl)prop-2-en-1-one] | ≥ 7.00 | ≥ 7.00
9 | C=CC(=O)N1CCC(n2cnc3c(=O)n(C)c4c(F)c(-c5cc(O)cc6ccccc56)c(Cl)cc4c32)C1 (racemic) [Example 33, 1-(1-acryloylpyrrolidin-3-yl)-8-chloro-6-fluoro-7-(3-hydroxynaphthalen-1-yl)-5-methyl-1,5-dihydro-4H-imidazo[4,5-c]quinolin-4-one] | 5.30 to 6.00 | 6.00 to 7.00
10 | C=CC(=O)N1C[C@H](OC)[C@@H](n2cnc3c(N4CC(N(C)C)C4)nc4c(F)c(-c5cc(O)cc6ccccc56)c(Cl)cc4c32)C1 (relative stereo) [Example 30b, 1-((trans)-3-(8-chloro-4-(3-(dimethylamino)azetidin-1-yl)-6-fluoro-7-(3-hydroxynaphthalen-1-yl)-1H-imidazo[4,5-c]quinolin-1-yl)-4-methoxypyrrolidin-1-yl)prop-2-en-1-one] | ≥ 7.00 | ≥ 7.00
11 | C=CC(=O)N1CCC(n2cnc3c(OC[C@@H]4CCCN4C)nc4c(F)c(-c5cc(O)cc6ccccc56)c(Cl)cc4c32)CC1 (single isomer, unassigned) [Example 1a] | 6.00 to 7.00 | ≥ 7.00
12 | C=CC(=O)N1CCC(n2cnc3c(OC[C@@H]4CCCN4C)nc4c(F)c(-c5c(O)cccc5F)c(Cl)cc4c32)CC1 (single isomer, unassigned) [Example 2a] | 5.30 to 6.00 | 6.00 to 7.00
13 | C=CC(=O)N1CCC(n2cnc3c(OC[C@@H]4CCCN4C)nc4c(F)c(-c5cccc(O)c5F)c(Cl)cc4c32)CC1 (single isomer, unassigned) [Example 3a] | – | 5.30 to 6.00
14 | C=CC(=O)N1CCC(n2cnc3c(OC[C@@H]4CCCN4C)nc4c(F)c(-c5c(C)ccc6[nH]ncc56)c(Cl)cc4c32)CC1 (single isomer, unassigned) [Example 4a] | 6.00 to 7.00 | ≥ 7.00
15 | C=CC(=O)N1CC(n2cnc3c(OC[C@@H]4CCCN4C)nc4c(F)c(-c5cc(O)cc6ccccc56)c(Cl)cc4c32)C1 (single isomer, unassigned) [Example 6a] | 6.00 to 7.00 | ≥ 7.00
16 | C=CC(=O)N1CCC(n2nnc3c(OC[C@@H]4CCCN4C)nc4c(F)c(-c5cc(O)cc6ccccc56)c(Cl)cc4c32)CC1 (single isomer, unassigned) [Example 14a] | ≥ 7.00 | ≥ 7.00
17 | C=CC(=O)N1C[C@H](C)[C@@H](n2cnc3c(OC[C@@H]4CCCN4C)nc4c(F)c(-c5cc(O)cc6ccccc56)c(Cl)cc4c32)C1 (single isomer, unassigned) [Example 29b] | ≥ 7.00 | ≥ 7.00
18 | C=CC(=O)N1CCC(n2cnc3c(OC[C@@H]4CCCN4C)nc4c(F)c(-c5cc(O)cc6ccccc56)c(Cl)cc4c32)CC1CC#N (single isomer, unassigned) [Example 36a] | ≥ 7.00 | ≥ 7.00
19 | C=CC(=O)N1CCC(n2cnc3c(OCc4ccnn4C)nc4c(F)c(-c5cc(O)cc6ccccc56)c(Cl)cc4c32)CC1 [Example 8, 1-(4-(8-chloro-6-fluoro-7-(3-hydroxynaphthalen-1-yl)-4-((1-methyl-1H-pyrazol-5-yl)methoxy)-1H-imidazo[4,5-c]quinolin-1-yl)piperidin-1-yl)prop-2-en-1-one] | – | 6.00 to 7.00
20 | C=CC(=O)N1CC(n2c(=O)[nH]c3c(=O)n(-c4ccccc4)c4nc(-c5cc(O)cc6ccccc56)c(F)cc4c32)C1 [Example 28, 1-(1-acryloylazetidin-3-yl)-8-fluoro-7-(3-hydroxynaphthalen-1-yl)-5-phenyl-3,5-dihydro-1H-imidazo[4,5-c][1,8]naphthyridine-2,4-dione] | – | 6.00 to 7.00
